Experimental data taken from patent publication US11311522B1 (Cavion, Inc., priority 2018, dated 2022).
pIC50: −log10 of the molar value. Like-named read-outs stand apart in the source and are kept apart here.

What was measured:
[1] = 4-week oral toxicology in Beagle dogs; conditions: dog, in vivo
[2] = Phase 1 multiple-dose pharmacokinetics (PN002/Part II); conditions: for half-life / AUC / Cmax: human, plasma
[3] = Pharmacokinetics in rhesus monkeys; assay type: in vivo, rhesus monkey; conditions: for AUC: male, rhesus monkey, plasma, po, 2 mg/kg, read-out: AUC24
Description: The validity and reproducibility of the assays were determined, and the precision and accuracy for calibration standards and quality control samples were examined. […] The analytes were stable in plasma under the storage and assay conditions. […] Assay performances were satisfactory and met acceptance criteria for system performance suitability, quantitation range, calibration linearity, assay accuracy and precision, and assay recovery.

in vivo [4] = conditions: Beagle, dog, po, 300 mg/kg
[5] = In vitro plasma protein binding, human; assay type: in vitro ADME
CYP2B6 = CYP2B6 mRNA induction in human hepatocytes; assay type: in vitro ADME
Source text: (§1) Glucuronide conjugates of the oxygenated metabolites are detected in human, monkey, and dog hepatocyte preparations. […] However, the abundance of CYP3A5, CYP2C19, and CYP2D6 in human liver microsomes is low (2%-5%) relative to the primary contributors, CYP3A4 (˜30%) and CYP2C9 (˜20%). […] Information on reproductive and developmental toxicology was obtained in a 28-day pivotal female fertility study in rats and in preliminary embryo-fetal development studies in rats and rabbits.

in vivo [6] = conditions: female, rat, po, 10 mg/kg/day
CYP2C9 = target: T1, CYP2C9 (Homo sapiens, UniProt P11712); assay: In vitro metabolism (liver microsomes, hepatocytes, recombinant CYPs, anti-CYP antibodies); assay type: in vitro ADME; conditions: recombinant CYP2C9
T1 construct: host or cells: pooled liver microsomes, hepatocytes and recombinant CYP enzymes
T1 sequence (P11712 whole entry): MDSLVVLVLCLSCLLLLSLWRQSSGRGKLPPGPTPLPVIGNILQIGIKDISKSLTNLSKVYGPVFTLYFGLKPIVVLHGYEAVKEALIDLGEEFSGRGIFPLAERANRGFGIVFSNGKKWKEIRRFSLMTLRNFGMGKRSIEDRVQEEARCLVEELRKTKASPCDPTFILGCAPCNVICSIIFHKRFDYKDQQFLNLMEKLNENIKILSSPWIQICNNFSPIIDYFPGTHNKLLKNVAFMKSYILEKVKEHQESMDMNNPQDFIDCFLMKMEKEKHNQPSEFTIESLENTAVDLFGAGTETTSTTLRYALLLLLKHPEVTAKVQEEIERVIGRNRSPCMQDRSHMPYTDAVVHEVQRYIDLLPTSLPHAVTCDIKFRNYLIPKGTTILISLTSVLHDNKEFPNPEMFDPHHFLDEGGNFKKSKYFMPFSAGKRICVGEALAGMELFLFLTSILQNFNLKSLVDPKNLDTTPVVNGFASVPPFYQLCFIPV
Source text: as §1

[7] = Single-dose toxicokinetic study in dogs; assay type: in vivo; conditions: dog, plasma, po, 800 mg/kg
[8] = T-CALM: plasma concentrations by 5-in-1 LC/MS/MS; assay type: in vivo, human; conditions: for Plasma concentration, mean: trough; for concentration at 4 h: human, plasma, oral, 4 hours post-dose
Description: Additionally, at Visit 4, a post-dose sample will be collected as close to 4 hours post-dose as possible, but within the window of 4-6 hours post-dose (i.e., a total of two PK samples are collected at Visit 4.)
Assay performances were satisfactory and met acceptance criteria for system performance suitability, quantitation range, calibration linearity, assay accuracy and precision, and assay recovery.

[9] = Brain penetration in male rats; assay type: in vivo; conditions: rat, 25 mg/kg
clinical = conditions: human, plasma, oral, 8 mg
Source text: Subjects will be screened for study eligibility within 28 days before administration of the first dose of study drug. Subjects who meet the study eligibility criteria will be admitted to the clinical research unit in the afternoon of the day before administration of the first dose of study drug (Period 1/Day −1).
Treatments A, B, and C will be separated by a minimum 7-day washout period. […] Administration of Treatment D may be separated from administration of Treatments A, B, and C by approximately 4 weeks to allow for analysis of the bioanalytical samples from the first 3 treatments.

Cav3.3 = target: T2, Cav3.3 (Homo sapiens, UniProt Q9P0X4); assay: Cav3.3 FLIPR calcium influx assay (HEK 293 cells); assay type: cell-based; conditions: for pIC50: Cav3.3 FLIPR assay; for State dependence: hyperpolarized versus depolarized FLIPR potency
T2 construct: expressed in transfected cells; host or cells: HEK 293
T2 sequence (Q9P0X4 whole entry, species assumed): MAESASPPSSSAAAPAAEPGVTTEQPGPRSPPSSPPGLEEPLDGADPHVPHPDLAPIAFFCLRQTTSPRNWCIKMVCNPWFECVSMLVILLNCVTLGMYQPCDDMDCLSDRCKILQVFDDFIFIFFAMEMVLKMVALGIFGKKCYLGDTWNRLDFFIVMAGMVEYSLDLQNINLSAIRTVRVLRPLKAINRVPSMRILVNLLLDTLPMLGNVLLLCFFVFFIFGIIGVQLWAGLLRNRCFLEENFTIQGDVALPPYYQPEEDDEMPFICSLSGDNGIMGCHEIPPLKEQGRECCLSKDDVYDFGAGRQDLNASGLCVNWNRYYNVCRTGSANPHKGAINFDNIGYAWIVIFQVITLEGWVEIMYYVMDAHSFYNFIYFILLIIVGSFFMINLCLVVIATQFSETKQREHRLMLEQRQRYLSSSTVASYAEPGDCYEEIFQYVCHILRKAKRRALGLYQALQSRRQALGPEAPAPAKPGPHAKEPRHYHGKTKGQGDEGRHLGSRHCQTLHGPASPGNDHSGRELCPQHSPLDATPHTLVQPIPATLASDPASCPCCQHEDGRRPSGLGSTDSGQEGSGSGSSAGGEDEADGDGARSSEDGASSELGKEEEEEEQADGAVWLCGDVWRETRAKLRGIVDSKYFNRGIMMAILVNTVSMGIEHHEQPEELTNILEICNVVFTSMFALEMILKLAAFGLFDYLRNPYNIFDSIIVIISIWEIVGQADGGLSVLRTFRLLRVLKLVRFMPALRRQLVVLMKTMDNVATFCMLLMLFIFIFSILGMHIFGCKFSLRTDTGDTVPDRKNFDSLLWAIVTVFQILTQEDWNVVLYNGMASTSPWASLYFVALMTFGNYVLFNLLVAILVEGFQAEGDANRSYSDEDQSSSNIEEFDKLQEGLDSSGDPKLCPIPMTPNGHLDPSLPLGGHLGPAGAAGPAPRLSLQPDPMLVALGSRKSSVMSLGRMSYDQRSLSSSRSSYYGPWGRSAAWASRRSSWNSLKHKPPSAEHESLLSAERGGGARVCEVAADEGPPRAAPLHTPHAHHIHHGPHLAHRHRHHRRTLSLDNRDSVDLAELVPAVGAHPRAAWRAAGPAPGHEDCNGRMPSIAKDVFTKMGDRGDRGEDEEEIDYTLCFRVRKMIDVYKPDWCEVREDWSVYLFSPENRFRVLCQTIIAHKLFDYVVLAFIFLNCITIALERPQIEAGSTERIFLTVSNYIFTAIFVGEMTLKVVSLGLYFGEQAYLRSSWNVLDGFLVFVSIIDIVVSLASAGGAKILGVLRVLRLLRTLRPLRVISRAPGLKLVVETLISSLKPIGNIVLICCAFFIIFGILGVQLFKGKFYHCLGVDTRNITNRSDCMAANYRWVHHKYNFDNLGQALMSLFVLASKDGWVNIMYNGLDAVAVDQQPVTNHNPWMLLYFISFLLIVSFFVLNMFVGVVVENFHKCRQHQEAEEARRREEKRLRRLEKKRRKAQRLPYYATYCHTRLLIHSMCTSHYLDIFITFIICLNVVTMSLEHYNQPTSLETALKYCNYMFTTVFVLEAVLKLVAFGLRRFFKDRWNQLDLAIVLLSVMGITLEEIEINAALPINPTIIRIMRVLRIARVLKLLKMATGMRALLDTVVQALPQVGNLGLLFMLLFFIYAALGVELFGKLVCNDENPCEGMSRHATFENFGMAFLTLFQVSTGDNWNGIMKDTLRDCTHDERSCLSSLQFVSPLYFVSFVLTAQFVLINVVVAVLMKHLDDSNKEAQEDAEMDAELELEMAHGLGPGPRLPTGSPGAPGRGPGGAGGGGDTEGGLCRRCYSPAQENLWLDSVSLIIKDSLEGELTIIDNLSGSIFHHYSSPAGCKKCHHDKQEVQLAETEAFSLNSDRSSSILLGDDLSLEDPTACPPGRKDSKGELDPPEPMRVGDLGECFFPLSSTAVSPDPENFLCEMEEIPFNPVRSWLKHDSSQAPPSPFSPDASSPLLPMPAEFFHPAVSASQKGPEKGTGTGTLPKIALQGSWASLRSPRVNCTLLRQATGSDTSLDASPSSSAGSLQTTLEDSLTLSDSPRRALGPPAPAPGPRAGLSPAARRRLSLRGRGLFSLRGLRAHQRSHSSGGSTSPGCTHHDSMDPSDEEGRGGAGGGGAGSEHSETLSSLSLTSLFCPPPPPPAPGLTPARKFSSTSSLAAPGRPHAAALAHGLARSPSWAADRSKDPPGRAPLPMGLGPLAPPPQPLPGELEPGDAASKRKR

[10] = Simulated Css and total active moiety, 10 mg BID; parameters: species or system human; conditions: for Css, estimated mean / Steady-state AUC24, estimated mean: CX-8998 10 mg twice daily fasted; for Cu, ss_adj: adjusted for fu and potency, 10 mg BID; for Cp, ss / Cu, ss: simulated from CX-8998 10 mg BID
[11] = Off-target panel of enzyme and receptor binding sites, ion channels, transporters; conditions: 10 μM, 87 targets
[12] = M01, Day 7, CX-8998 2 mg once daily
[13] = M01, Day 7, CX-8998 18 mg once daily
[14] = human plasma, read-out: In vitro plasma protein binding (converted)
[15] = humans, read-out: free fraction
[16] = brain and plasma, oral, read-out: Brain-to-plasma ratio
[17] = depolarized, read-out: Depolarized FLIPR potency
[18] = hyperpolarized, read-out: Hyperpolarized FLIPR potency
[19] = M01, middle-aged and elderly men
[20] = M01, middle-aged and elderly women
[21] = M02, middle-aged and elderly men
[22] = M02, middle-aged and elderly women

For `C=C(C)c1ccc(CC(=O)N[C@H](C)c2ccc(OCC(F)(F)F)cn2)cc1` [M01], the “Safety margin (AUC24) at the NOEL over expected clinical exposure” value [1] was ~6 fold, the “AUC Ratio, metabolite to parent” value [2, 12] was 1.12 and the “Cmax Ratio, metabolite to parent” value [2, 12] was 0.36. The “Cmax Ratio, metabolite to parent” value ([2]; M01, Day 7, CX-8998 4 mg once daily) was 0.36, the “AUC Ratio, metabolite to parent” value ([2]; M01, Day 7, CX-8998 12 mg once daily) was 1.15 and the “AUC Ratio, metabolite to parent” value [2, 13] was 1.34. For the same compound, the “Cmax Ratio, metabolite to parent” value [2, 13] was 0.57, the “Relative potency (CX-8998 = 1.00)” value ([2]; based on potency, free fraction, maximum Cmax ratios) was 0.27 and the half-life ([2]; 2 mg) was 25.8 h. For the same compound, the AUC ([2]; 2 mg, AUC24, M01, Day 7, CX-8998 2 mg once daily) was 1.52 µM·h, the Cmax ([2]; 2 mg, M01, Day 7, CX-8998 2 mg once daily) was 76 nM and the AUC ([2]; 4 mg, AUC24, M01, Day 7, CX-8998 4 mg once daily) was 2.83 µM·h. For the same compound, the Cmax ([2]; 4 mg, M01, Day 7, CX-8998 4 mg once daily) was 136 nM, the half-life ([2]; 12 mg) was 22.6 h and the half-life ([2]; 18 mg) was 19 h. It also gave an AUC ([2]; 18 mg, AUC24, M01, Day 7, CX-8998 18 mg once daily) of 18.3 µM·h, a Cmax ([2]; 18 mg, M01, Day 7, CX-8998 18 mg once daily) of 865 nM and a half-life ([2]; male, oral) of 19 to 25.8 h. The “Ratio of AUC24 (metabolite/CX-8998)” value ([3]; Monkey, Male, single oral dose 2 mg/kg of CX-8998) was 0.24, the AUC [3] was 0.5 µM·h and the Kp at 24 h (in vivo [4]; female, CSF) was 0.112. For the same compound, the concentration at 24 h (in vivo [4]; female, CSF) was 112 nM, the Kp at 24 h (in vivo [4]; female, brain (frontal cortex)) was 0.696 and the concentration at 24 h (in vivo [4]; female, brain (frontal cortex)) was 696 nM. For the same compound, the Kp at 24 h (in vivo [4]; female, brain (thalamus)) was 0.772, the concentration at 24 h (in vivo [4]; female, brain (thalamus)) was 772 nM and the Kp at 24 h (in vivo [4]; male, CSF) was 0.149. The concentration at 24 h (in vivo [4]; male, CSF) was 149 nM, the Kp at 24 h (in vivo [4]; male, brain (frontal cortex)) was 0.19 and the concentration at 24 h (in vivo [4]; male, brain (frontal cortex)) was 190 nM. The Kp at 24 h (in vivo [4]; male, brain (thalamus)) was 0.208, the concentration at 24 h (in vivo [4]; male, brain (thalamus)) was 208 nM and the fraction unbound ([5]; human plasma, read-out: Human-free fraction) was < 0.001. For the same compound, the fraction unbound [5, 14] was < 0.001, the fraction unbound [5, 15] was < 0.001 and the CYP2B6 induction (CYP2B6) was “mild to moderate inducers”. For the same compound, the AUC (in vivo [6]) was 8.11 µM·h, the Cmax (in vivo [6]) was 2660 nM and the “KM for CYP2C9 reactions (formation)” value (CYP2C9) was ~3 µM. For the same compound, the Tmax ([7]; female) was 8 h, the Tmax ([7]; male) was 8 h and the “Plasma concentration, mean” value ([8]; Visit 2 (Day 8), 4 mg BID) was 398 nM. The “Plasma concentration, mean” value ([8]; Visit 3 (Day 15), 8 mg BID) was 812 nM, the “Plasma concentration, mean” value ([8]; Visit 4 (Day 28), 10 mg BID) was 1023 nM and the concentration at 4 h ([8]; Visit 4 (Day 28), 10 mg BID) was 976 nM. It also gave a Kp at 2 h [9, 16] of 0.27, a Kp at 2 h ([9]; brain, po, read-out: Brain: Plasma Ratio) of 0.27 and an AUC(0-t) (clinical) of 6.88 µM·h. The Cmax (clinical) was 124 nM, the Tmax (clinical) was 29 h and the pIC50 (Cav3.3; [17]) was 8.64. For the same compound, the pIC50 (Cav3.3; [18]) was 7.07, the State dependence (Cav3.3) was 37 fold and the “Potency relative to CX-8998” value [10] was 1.57. For the same compound, the “Css, estimated mean” value [10, 19] was 1167 nM, the “Steady-state AUC24, estimated mean” value [10, 19] was 28.008 µM·h and the “Css, estimated mean” value [10, 20] was 1146 nM. For the same compound, the “Steady-state AUC24, estimated mean” value [10, 20] was 27.504 µM·h, the “Css, estimated mean” value ([10]; M01, young men) was 771 nM and the “Steady-state AUC24, estimated mean” value ([10]; M01, young men) was 18.504 µM·h. For the same compound, the “Cu, ss_adj” value [10] was <1.2 nM, the “Cp, ss” value [10] was 771 nM and the “Cu, ss” value [10] was <0.8 nM.
For `C[C@@H](NC(=O)Cc1ccc(C(C)(C)O)cc1)c1ccc(OCC(F)(F)F)cn1` [M02], the “Safety margin (AUC24) at the NOEL over expected clinical exposure” value [1] was ~23 fold, the half-life ([2]; 2 mg) was 15 h and the AUC ([2]; 2 mg, AUC24, M02, Day 7, CX-8998 2 mg once daily) was 0.93 µM·h. The Cmax ([2]; 2 mg, M02, Day 7, CX-8998 2 mg once daily) was 54 nM, the half-life ([2]; 4 mg) was 15.4 h and the AUC ([2]; 4 mg, AUC24, M02, Day 7, CX-8998 4 mg once daily) was 1.86 µM·h. It also gave a Cmax ([2]; 4 mg, M02, Day 7, CX-8998 4 mg once daily) of 106 nM, a half-life ([2]; 8 mg) of 12.2 h and an AUC ([2]; 8 mg, AUC24, M02, Day 7, CX-8998 8 mg once daily) of 3.54 µM·h. For the same compound, the Cmax ([2]; 8 mg, M02, Day 7, CX-8998 8 mg once daily) was 219 nM, the half-life ([2]; 12 mg) was 14.5 h and the AUC ([2]; 12 mg, AUC24, M02, Day 7, CX-8998 12 mg once daily) was 4.55 µM·h. For the same compound, the Cmax ([2]; 12 mg, M02, Day 7, CX-8998 12 mg once daily) was 287 nM, the half-life ([2]; 18 mg) was 12.8 h and the AUC ([2]; 18 mg, AUC24, M02, Day 7, CX-8998 18 mg once daily) was 7.97 µM·h. The Cmax ([2]; 18 mg, M02, Day 7, CX-8998 18 mg once daily) was 481 nM, the half-life ([2]; male, oral) was 12.2 to 15.4 h and the AUC [3] was 36.6 µM·h. The fraction unbound [5, 14] was 0.14, the fraction unbound [5, 15] was 0.14 and the CYP2B6 induction (CYP2B6) was “mild to moderate inducers”. The AUC (in vivo [6]) was 31.7 µM·h, the Cmax (in vivo [6]) was 5400 nM and the “KM for CYP2C9 reactions (formation)” value (CYP2C9) was ~3 µM. The Tmax ([7]; female) was 8 h, the Tmax ([7]; male) was 8 h and the “Off-target effects (≥50% inhibition or stimulation)” value [11] was “No significant results”. For the same compound, the “Plasma concentration, mean” value ([8]; Visit 2 (Day 8), 4 mg BID) was 168 nM, the “Plasma concentration, mean” value ([8]; Visit 3 (Day 15), 8 mg BID) was 325 nM and the “Plasma concentration, mean” value ([8]; Visit 4 (Day 28), 10 mg BID) was 406 nM. For the same compound, the concentration at 4 h ([8]; Visit 4 (Day 28), 10 mg BID) was 438 nM, the Kp at 2 h [9, 16] was 0.32 and the AUC(0-t) (clinical) was 3.67 µM·h. For the same compound, the Cmax (clinical) was 122 nM, the pIC50 (Cav3.3; [17]) was 7.77 and the pIC50 (Cav3.3; [18]) was 5.55. For the same compound, the State dependence (Cav3.3) was 166 fold, the “Css, estimated mean” value [10, 21] was 683 nM and the “Steady-state AUC24, estimated mean” value [10, 21] was 15.312 µM·h. For the same compound, the “Css, estimated mean” value [10, 22] was 566 nM, the “Steady-state AUC24, estimated mean” value [10, 22] was 13.584 µM·h and the “Css, estimated mean” value ([10]; M02, young men) was 343 nM. The “Steady-state AUC24, estimated mean” value ([10]; M02, young men) was 8.232 µM·h, the “Cu, ss_adj” value [10] was 10.1 nM and the “Cp, ss” value [10] was 343 nM. For the same compound, the “Cu, ss” value [10] was 48 nM.
